# Experimental data taken from US20250114359A1, “METHODS FOR […] G[…]/OR HEXOKINASE” (UNIVERSITY OF SOUTH CAROLINA, priority 2023, published 2025).
# Molecular target: Trypanosoma cruzi glucokinase (TcGlcK) (Trypanosoma cruzi, UniProt Q4E4E1)
# Assay: Determination of Ki values by type 1 and type 2 Dixon plots;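 note: compounds supplied as 10 mM DMSO stocks (100 µL format), with a non-inhibitory compound run alongside for comparison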
# Assay type: biochemical
# Protocol: The inhibition constant can be determined by development of a Dixon plot (either type 1 or type 2) according to standard practice, and as utilized herein refers to the inhibitor concentration at which half maximum inhibition is determined for a 100 μL/10 mM format in DMSO.
# Determination of the Ki values for inhibitors was performed by creation of both type 1 and type 2 Dixon plots. The format included 100 μL/10 mM in DMSO.
# Sequence of Trypanosoma cruzi glucokinase (TcGlcK) (Q4E4E1 1-376): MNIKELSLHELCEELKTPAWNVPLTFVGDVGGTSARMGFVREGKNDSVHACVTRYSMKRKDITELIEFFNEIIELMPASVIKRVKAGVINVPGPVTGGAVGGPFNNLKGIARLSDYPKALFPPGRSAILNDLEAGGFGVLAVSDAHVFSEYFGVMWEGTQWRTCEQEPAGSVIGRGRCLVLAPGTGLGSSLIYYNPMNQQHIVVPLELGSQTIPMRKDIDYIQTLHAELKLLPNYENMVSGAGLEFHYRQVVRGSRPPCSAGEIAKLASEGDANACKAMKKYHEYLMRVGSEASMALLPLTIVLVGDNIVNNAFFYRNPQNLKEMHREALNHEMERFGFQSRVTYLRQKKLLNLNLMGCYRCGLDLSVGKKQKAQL
row,SMILES,Ki [µM]
1,CC1=C(C2=C(C)C(=O)c3c(c(C=O)c(O)c(O)c3C(C)C)C2=O)C(=O)c2c(C=O)c(O)c(O)c(C(C)C)c2C1=O [Inhibitor 31],960
2,"Cc1cc2c(c(O)c1-c1c(C)cc3c(c1O)/C(=C/Nc1c(C)n(C)n(-c4ccccc4)c1=O)C(=O)C(O)=C3C(C)C)/C(=C/Nc1c(C)n(C)n(-c3ccccc3)c1=O)C(=O)C(O)=C2C(C)C (atropisomer, axis not shown) [Inhibitor 21]",9.5
3,"COc1c(C)cc(/N=C/c2c(O)c(O)c(C(C)C)c3cc(C)c(-c4c(C)cc5c(C(C)C)c(O)c(O)c(/C=N/c6cc(C)c(OC)c(C)c6)c5c4O)c(O)c23)cc1C (atropisomer, axis not shown) [Inhibitor 49]",16.1
4,CN(C)c1ccc(/C=C2/SC(=S)NC2=O)cc1 [Inhibitor 68],0.27
5,"Cc1cc2c(C(C)C)c(O)c(O)c(/C=N/Nc3nnnn3-c3ccccc3)c2c(O)c1-c1c(C)cc2c(C(C)C)c(O)c(O)c(/C=N/Nc3nnnn3-c3ccccc3)c2c1O (atropisomer, axis not shown) [Inhibitor 60]",53.3
6,"Cc1cc2c(C(C)C)c(O)c(O)c(/C=N/c3cccc(N4CCCC4=O)c3)c2c(O)c1-c1c(C)cc2c(C(C)C)c(O)c(O)c(/C=N/c3cccc(N4CCCC4=O)c3)c2c1O (atropisomer, axis not shown) [Inhibitor 87]",17.6
7,"Cc1cc2c(C(C)C)c(O)c(O)c(/C=N/NC(=O)c3ccoc3C)c2c(O)c1-c1c(C)cc2c(C(C)C)c(O)c(O)c(/C=N/NC(=O)c3ccoc3C)c2c1O (atropisomer, axis not shown) [Inhibitor 39]",9.16
8,"CC(=O)c1ccc(N/C=C2\C(=O)C(O)=C(C(C)C)c3cc(C)c(-c4c(C)cc5c(c4O)/C(=C/Nc4ccc(C(C)=O)cc4)C(=O)C(O)=C5C(C)C)c(O)c32)cc1 (atropisomer, axis not shown) [Inhibitor 19]",10.4
9,O=C1NC(=S)S/C1=C/c1ccc(O)cc1 [Inhibitor 66],14.7
10,"Cc1cc2c(c(O)c1-c1c(C)cc3c(c1O)/C(=C/Nc1ccc(S(=O)(=O)Nc4nccs4)cc1)C(=O)C(O)=C3C(C)C)/C(=C/Nc1ccc(S(=O)(=O)Nc3nccs3)cc1)C(=O)C(O)=C2C(C)C (atropisomer, axis not shown) [Inhibitor 23]",32.3
11,"Cc1cc2c(c(O)c1-c1c(C)cc3c(c1O)/C(=C/Nc1ccccc1O)C(=O)C(O)=C3C(C)C)/C(=C/Nc1ccccc1O)C(=O)C(O)=C2C(C)C (atropisomer, axis not shown) [Inhibitor 14]",468
12,Cc1cc2c(C(C)C)c(O)c(O)c(/C=N/Nc3nc4ccccc4[nH]c3=O)c2c(O)c1-c1c(C)cc2c(C(C)C)c(O)c(O)c(/C=N/Nc3nc4ccccc4[nH]c3=O)c2c1O [Inhibitor 7],3.83
13,COc1ccc2ccccc2c1/C=C1\SC(=S)NC1=O [Inhibitor 69],12.9
14,Cc1cc2c(c(O)c1-c1c(C)cc3c(c1O)/C(=C/Nc1cccc(C(=C4C=CC(=N)C=C4)c4ccc(N)cc4)c1)C(=O)C(O)=C3C(C)C)/C(=C/Nc1cccc(C(=C3C=CC(=N)C=C3)c3ccc(N)cc3)c1)C(=O)C(O)=C2C(C)C [Inhibitor 30],3.9
15,"Cc1cc2c(C(C)C)c(O)c(O)c(/C=N/CCOc3ccc4c(c3)CCC4)c2c(O)c1-c1c(C)cc2c(C(C)C)c(O)c(O)c(/C=N/CCOc3ccc4c(c3)CCC4)c2c1O (atropisomer, axis not shown) [Inhibitor 82]",98.9
16,"COc1cc(/N=C/c2c(O)c(O)c(C(C)C)c3cc(C)c(-c4c(C)cc5c(C(C)C)c(O)c(O)c(/C=N/c6ccc(C)c(OC)c6)c5c4O)c(O)c23)ccc1C (atropisomer, axis not shown) [Inhibitor 47]",29.1
17,"Cc1ccc(OCC/N=C/c2c(O)c(O)c(C(C)C)c3cc(C)c(-c4c(C)cc5c(C(C)C)c(O)c(O)c(/C=N/CCOc6ccc(C)cc6Br)c5c4O)c(O)c23)c(Br)c1 (atropisomer, axis not shown) [Inhibitor 77]",42.3
18,"Cc1cc2c(c(O)c1-c1c(C)cc3c(c1O)/C(=C/NCCO)C(=O)C(O)=C3C(C)C)/C(=C/NCCO)C(=O)C(O)=C2C(C)C (atropisomer, axis not shown) [Inhibitor 13]",422
19,"Cc1cc2c(c(O)c1-c1c(C)cc3c(c1O)/C(=C/NCSN)C(=O)C(O)=C3C(C)C)/C(=C/NCSN)C(=O)C(O)=C2C(C)C (atropisomer, axis not shown) [Inhibitor 85]",30.1
20,Cc1cc(C)cc(OCC(=O)C/N=C/c2c(O)c(O)c(C(C)C)c3cc(C)c(-c4c(C)cc5c(C(C)C)c(O)c(O)c(/C=N/NC(=O)COc6cc(C)cc(C)c6)c5c4O)c(O)c23)c1 [Inhibitor 3],60.4
21,Cc1cc2c(C(C)C)c(O)c(O)c(/C=N/NC(=O)C(C)C)c2c(O)c1-c1c(C)cc2c(C(C)C)c(O)c(O)c(/C=N/NC(=O)C(C)C)c2c1O [Inhibitor 6],30.2
22,COc1ccc(OC)c(/N=C/c2c(O)c(O)c(C(C)C)c3cc(C)c(-c4c(C)cc5c(C(C)C)c(O)c(O)c(/C=N/c6cc(OC)ccc6OC)c5c4O)c(O)c23)c1 [Inhibitor 11],30.5

row,SMILES,Ki [µM]
1,Cc1cc2c(c(O)c1-c1c(C)cc3c(c1O)C(C=C1C(=O)NC(=O)NC1=O)C(=O)C(O)=C3C(C)C)C(C=C1C(=O)NC(=O)NC1=O)C(=O)C(O)=C2C(C)C (centres unmarked) [Inhibitor 32],10.6
2,CCCCCC1CCC(=O)N1CCN/C=C1\C(=O)C(O)=C(C(C)C)c2cc(C)c(-c3c(C)cc4c(c3O)/C(=C/NCCN3C(=O)CCC3CCCCC)C(=O)C(O)=C4C(C)C)c(O)c21 (centres unmarked) [Inhibitor 75],560
3,"Cc1cc2c(c(O)c1-c1c(C)cc3c(c1O)/C(=C/Nc1ccccc1C(=O)O)C(=O)C(O)=C3C(C)C)/C(=C/Nc1ccccc1C(=O)O)C(=O)C(O)=C2C(C)C (atropisomer, axis not shown) [Inhibitor 15]",1.2
4,"Cc1cc2c(c(O)c1-c1c(C)cc3c(c1O)/C(=C/NNC(=O)c1ccncc1)C(=O)C(O)=C3C(C)C)/C(=C/NNC(=O)c1ccncc1)C(=O)C(O)=C2C(C)C (atropisomer, axis not shown) [Inhibitor 26]",213
5,"Cc1cc2c(c(O)c1-c1c(C)cc3c(c1O)/C(=C/NCc1cccnc1)C(=O)C(O)=C3C(C)C)/C(=C/NCc1cccnc1)C(=O)C(O)=C2C(C)C (atropisomer, axis not shown) [Inhibitor 74]",123
6,"COc1ccc(OCC/N=C/c2c(O)c(O)c(C(C)C)c3cc(C)c(-c4c(C)cc5c(C(C)C)c(O)c(O)c(/C=N/CCOc6ccc(OC)cc6)c5c4O)c(O)c23)cc1 (atropisomer, axis not shown) [Inhibitor 40]",29.4
7,Cc1cc2c(C(C)C)c(O)c(O)c(/C=N/c3ccc(C(O)C(O)CO)cc3)c2c(O)c1-c1c(C)cc2c(C(C)C)c(O)c(O)c(/C=N/c3ccc(C(O)C(O)CO)cc3)c2c1O (centres unmarked) [Inhibitor 48],274
8,"Cc1cc2c(c(O)c1-c1c(C)cc3c(c1O)/C(=C/Nc1ccc(N=Nc4ccccc4)cc1)C(=O)C(O)=C3C(C)C)/C(=C/Nc1ccc(N=Nc3ccccc3)cc1)C(=O)C(O)=C2C(C)C (atropisomer, axis not shown) [Inhibitor 18]",45.5
9,CCOC(=O)Nc1ccc(/N=C/c2c(O)c(O)c(C(C)C)c3cc(C)c(-c4c(C)cc5c(C(C)C)c(O)c(O)c(/C=N/c6ccc(NC(=O)OCC)cc6)c5c4O)c(O)c23)cc1 [Inhibitor 12],4710
10,"Cc1cc(OCC/N=C/c2c(O)c(O)c(C(C)C)c3cc(C)c(-c4c(C)cc5c(C(C)C)c(O)c(O)c(/C=N/CCOc6cc(C)c(Cl)c(C)c6Cl)c5c4O)c(O)c23)c(Cl)c(C)c1Cl (atropisomer, axis not shown) [Inhibitor 79]",127
11,COc1cc(/C=N/c2c(C)n(C)n(-c3ccccc3)c2=O)ccc1O [Inhibitor 62],19.9
12,"Cc1cc2c(C(C)C)c(O)c(O)c(/C=N/c3ccc4c(c3)CCN4S(C)(=O)=O)c2c(O)c1-c1c(C)cc2c(C(C)C)c(O)c(O)c(/C=N/c3ccc4c(c3)CCN4S(C)(=O)=O)c2c1O (atropisomer, axis not shown) [Inhibitor 51]",0.8
13,"Cc1cc2c(C(C)C)c(O)c(O)c(/C=N/n3c(=O)[nH][nH]c3=O)c2c(O)c1-c1c(C)cc2c(C(C)C)c(O)c(O)c(/C=N/n3c(=O)[nH][nH]c3=O)c2c1O (atropisomer, axis not shown) [Inhibitor 33]",122
14,"CCCC(CCC)/N=C/c1c(O)c(O)c(C(C)C)c2cc(C)c(-c3c(C)cc4c(C(C)C)c(O)c(O)c(/C=N/C(CCC)CCC)c4c3O)c(O)c12 (atropisomer, axis not shown) [Inhibitor 46]",99.1
15,Cc1cc2c(C(C)C)c(O)c(O)c(/C=N/Nc3cccc(Cl)n3)c2c(O)c1-c1c(C)cc2c(C(C)C)c(O)c(O)c(/C=N/Nc3cccc(Cl)n3)c2c1O [Inhibitor 9],11
16,"Cc1cc(-c2ccc(N/C=C3\C(=O)C(O)=C(C(C)C)c4cc(C)c(-c5c(C)cc6c(c5O)/C(=C/Nc5ccc(-c7ccc(N)c(C)c7)cc5C)C(=O)C(O)=C6C(C)C)c(O)c43)c(C)c2)ccc1N (atropisomer, axis not shown) [Inhibitor 17]",532
17,"COc1ccc(CC(=O)N/N=C/c2c(O)c(O)c(C(C)C)c3cc(C)c(-c4c(C)cc5c(C(C)C)c(O)c(O)c(/C=N/NC(=O)Cc6ccc(OC)c(OC)c6)c5c4O)c(O)c23)cc1OC (atropisomer, axis not shown) [Inhibitor 55]",41.6
18,"Cc1cc2c(C(C)C)c(O)c(O)c(/C=N/CCOc3ccc4c(c3)OCC4)c2c(O)c1-c1c(C)cc2c(C(C)C)c(O)c(O)c(/C=N/CCOc3ccc4c(c3)OCO4)c2c1O (atropisomer, axis not shown) [Inhibitor 41]",328
19,"CCCSCC/N=C/c1c(O)c(O)c(C(C)C)c2cc(C)c(-c3c(C)cc4c(C(C)C)c(O)c(O)c(/C=N/CCSCC)c4c3O)c(O)c12 (atropisomer, axis not shown) [Inhibitor 83]",84.5
20,Cc1cc2c(c(O)c1-c1c(C)cc3c(c1O)/C(=C/NC(C)CCc1ccco1)C(=O)C(O)=C3C(C)C)/C(=C/NC(C)CCc1ccco1)C(=O)C(O)=C2C(C)C (centres unmarked) [Inhibitor 73],2.03
21,Cc1cc(C=O)c(O)c(C=O)c1 [Inhibitor 44],99.1
22,"Cc1cc2c(C(C)C)c(O)c(O)c(/C=N/CCOc3ccc(C4CCCCC4)cc3)c2c(O)c1-c1c(C)cc2c(C(C)C)c(O)c(O)c(/C=N/CCOc3ccc(C4CCCCC4)cc3)c2c1O (atropisomer, axis not shown) [Inhibitor 80]",11.8
